Test system: Ornithine decarboxylase (ODC)
Test: Expression of ornithine decarboxylase (ODC) by flow cytometry in dermal papilla cells
Type: cell-based, human
Details: Control 26.8%
Description: Dermal papilla cells (DPC) were cultured in DMEM medium with 10% FBS and seeded in 96 well tissue culture plate for the test. 24 hrs post seeding, DPC were treated with the test sample Ar-Turmerone at graded concentrations and incubated for 48 hrs in 5% CO2 incubator at 37° C. After 48 hrs the cells were collected from each well. These cells were incubated with Fluorescein isothiocyanate (FITC) labelled Ornithine-de-carboxylase antibody. After being washed with sterile PBS, samples were resuspended in PBS (pH 7.4) and acquired directly on the Flow cytometer. A fluorescence trigger was set on the FITC (FL1) parameter of the gated DPC populations (10,000 events). Percentage decrease of ODC expression in test samples was calculated with respect to un-treated cells (control), (FIG. 1).

Question: Which “% Expression of ODC at 100 μg/ml” value does the source give for `NCCCC(N)(C(=O)O)C(F)F` (stereo not shown) [Eflornithine] here?
Answer: 11.4%
